Assay results published in patent publication US9321768B2, “Indoles as respiratory syncytial virus antiviral agents” (JANSSEN SCIENCES IRELAND UC, priority 2010, dated 2016).
Read-outs that look alike come from different tables or passages of the source.

Experiments:
[1] = Cytotoxicity in HeLa cells, ATP content (ATPlite kit); type: cell-based; settings: human
Procedure: (§1) Black 96-well clear-bottom microtiter plates (Corning, Amsterdam, The Netherlands) were filled in duplicate using a customized robot system with serial 4-fold dilutions of compound in a final volume of 50 μl culture medium [RPMI medium without phenol red, 10% FBS, 0.04% gentamycin (50 mg/ml) and 0.5% DMSO]. Then, 100 μl of a HeLa cell suspension (5×10^4 cells/ml) in culture medium was added to each well followed by the addition of 50 μl rgRSV224 (MOI=0.02) virus in culture medium using a multidrop dispenser (Thermo Scientific, Erembodegem, Belgium). rgRSV224 virus is an engineered virus that includes an additional GFP gene (Hallak et al, 2000) and was in-licensed from the NIH (Bethesda, Md., USA). Medium, virus- and mockinfected controls were included in each test. Cells were incubated at 37° C. in a 5% CO2 atmosphere. Three days post-virus exposure, viral replication was quantified by measuring GFP expression in the cells by a MSM laser microscope (Tibotec, Beerse, Belgium). The EC50 was defined as the 50% inhibitory concentration for GFP expression. In parallel, compounds were incubated for three days in a set of white 96-well microtitier plates (Corning) and the cytotoxicity of compounds in HeLa cells was determined by measuring the ATP content of the cells using the ATPlite kit (PerkinElmer, Zaventem, Belgium) according to the manufacturer's instructions. The CC50 was defined as the 50% concentration for cytotoxicity.

rgRSV224 virus = test: microbe, parasite or virus in culture; type: cell-based, respiratory syncytial virus (RSV); settings: human respiratory syncytial virus, HeLa, 72 h, read-out: WT activity EC50
Procedure: as §1

Compound | CC50 at 3 days [1] | EC50 (rgRSV224 virus) | CC50 at 3 days ([1]; HeLa cells, three days incubation, ATP content, read-out: Toxicity CC50)
O=c1n(Cc2cc3ccc(Cl)cc3n2CCCCO)c2cnccc2n1C1CC1 [Compound 16, 3-((6-Chloro-1-(4-hydroxybutyl)-1H-indol-2-yl)methyl)-1-cyclopropyl-1H-imidazo[4,5-c]pyridin-2(3H)-one] | > 9.84 µM | 0.124 µM | –
CS(=O)(=O)CCCn1c(Cn2c(=O)n(C3CC3)c3ccncc32)cc2cc(Cl)ccc21 [Compound 1, 3-((5-Chloro-1-(3-(methylsulfonyl)propyl)-1H-indol-2-yl)methyl)-1-cyclopropyl-1H-imidazo[4,5-c]pyridin-2(3H)-one] | > 9.84 µM | 0.000286 µM | –
O=c1n(Cc2cc3cc(F)ccc3n2CCCCO)c2cnccc2n1C1CC1 [Compound 9, 1-Cyclopropyl-3-((5-fluoro-1-(4-hydroxybutyl)-1H-indol-2-yl)methyl)-1H-imidazo[4,5-c]pyridin-2(3H)-one] | 50.3 µM | 0.0294 µM | –
CS(=O)(=O)CCCn1c(Cn2c(=O)n(C3CC3)c3ccncc32)cc2cc(Br)ccc21 [Compound 2, 3-((5-bromo-1-(3-(methylsulfonyl)propyl)-1H-indol-2-yl)methyl)-1-cyclopropyl-1H-imidazo[4,5-c]pyridine-2(3H)-one] | > 9.84 µM | 0.000288 µM | –
CS(=O)(=O)CCCn1c(Cn2c(=O)n(C3CC3)c3ccc(F)cc32)cc2cc(Cl)ccc21 [Compound 8, 3-((5-Chloro-1-(3-(methylsulfonyl)propyl)-1H-indol-2-yl)methyl)-1-cyclopropyl-5-fluoro-1H-benzo[d]imidazol-2(3H)-one] | > 9.84 µM | 0.00379 µM | –
CC(C)CCn1c(Cn2c(=O)n(C3CC3)c3ccncc32)c(C(=O)O)c2ccccc21 [Compound 17, 2-((1-cyclopropyl-2-oxo-1H-imidazo[4,5-c]pyridin-3(2H)-yl)methyl)-1-isopentyl-1H-indole-3-carboxylic acid] | – | 0.159 µM | > 98.4 µM
